Experimental data published in the NIST ThermoML archive (doi:10.1021/acs.jced.5b00552).
Numbers after ± are expanded uncertainties.

Assay: xn = mol fraction of the nth substance listed
Settings: 100 kPa, Liquid, Vibrating tube method

Cc1ncc(CO)c(CO)c1O.Cl [5-hydroxy-6-methyl-3,4-pyridinedimethanol hydrochloride] + O
Settings	mass density [kg/m3]
293.15 K, x1 = 0.01626	1093.5 ± 6.3
298.15 K, x1 = 0.01886	1104.7 ± 6.4
303.15 K, x1 = 0.02222	1111 ± 6.5
308.15 K, x1 = 0.02522	1120.8 ± 6.6
313.15 K, x1 = 0.02666	1133.3 ± 7
318.15 K, x1 = 0.02818	1141.5 ± 6.8
323.15 K, x1 = 0.0329	1154.6 ± 7.1
